# Laboratory results: PubChem BioAssay (NCI)
# Values joined by “and” are separate entries in the source; they are usually repeats but may differ in a detail not shown here. Equal entries are not always repeated.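 Compound exposure: 48 hours, 5 concentrations, 96-well plates. Abbreviation: GI50, concentration required for 50% inhibition of growth. TGI marks complete inhibition of growth.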
# Columns and labels:
# Test in all cases: NCI tumour cell line growth inhibition, 48 h
# NCI-H460 lung = tested on: NCI-H460 lung
# LOX IMVI melanoma = tested on: LOX IMVI melanoma
# COLO 205 colon = tested on: COLO 205 colon
# RXF 393 renal = tested on: RXF 393 renal
# OVCAR-3 ovarian = tested on: OVCAR-3 ovarian
# SF-295 CNS = tested on: SF-295 CNS
# OVCAR-4 ovarian = tested on: OVCAR-4 ovarian
# UACC-257 melanoma = tested on: UACC-257 melanoma
# IGROV1 ovarian = tested on: IGROV1 ovarian
# DLD-1 colon = tested on: DLD-1 colon
Compound,GI50 (NCI-H460 lung),TGI (NCI-H460 lung),GI50 (LOX IMVI melanoma),TGI (LOX IMVI melanoma),GI50 (COLO 205 colon),TGI (COLO 205 colon),GI50 (RXF 393 renal),TGI (RXF 393 renal),GI50 (OVCAR-3 ovarian),TGI (OVCAR-3 ovarian),GI50 (SF-295 CNS),TGI (SF-295 CNS),GI50 (OVCAR-4 ovarian),TGI (OVCAR-4 ovarian),GI50 (UACC-257 melanoma),TGI (UACC-257 melanoma),GI50 (IGROV1 ovarian),TGI (IGROV1 ovarian),TGI (DLD-1 colon) [µM]
CN(CCOc1ccc(C#N)cc1)CCOc1ccc(C#N)cc1,> 100 µM,> 100 µM,> 100 µM,> 100 µM,> 100 µM,> 100 µM,46.8 µM,> 100 µM,29.8 µM,> 100 µM,17.3 µM,> 100 µM,67.5 µM,> 100 µM,28.9 µM,> 100 µM,1.66 µM,24.7 µM,–
CC(=O)n1c2ccccc2c2nc3nc(Oc4ccc(C)cc4)c4ccccc4c3cc21,–,> 100 µM,–,> 100 µM,–,> 100 µM,–,–,–,> 100 µM,–,> 100 µM,–,> 100 µM,–,> 100 µM,–,> 100 µM,> 100
O=C1CC[C@@H](S(=O)(=O)c2ccccc2)[C@@H](/C=C/c2ccccc2)O1,–,> 100 µM,–,> 100 µM,–,> 100 µM,–,> 100 µM,–,> 100 µM,–,> 100 µM,–,> 100 µM,–,> 100 µM,–,> 100 µM,–
COc1ccc(O)c(C#N)c1C#N,–,> 100 µM,–,> 100 µM,–,> 100 µM,–,> 100 µM,–,> 100 µM,–,> 100 µM,–,> 100 µM,–,> 100 µM,–,> 100 µM,–
CN(C)CCOc1ccc2c(c1)C/C(=C/c1ncc([N+](=O)[O-])n1C)C2=O,–,4.05 µM,–,14.4 µM,–,3.33 µM,–,3.69 µM,–,6.27 µM,–,20.3 µM,–,5.84 µM,–,14.7 µM,–,1.49 µM,–
Cn1ccnc1C(=O)/C=C/c1ccc(CC(=O)Nc2ccccc2)cc1,2.32 µM,9.52 µM,1.03 µM,4.27 µM,3.77 µM,9.39 µM,3.86 µM,7.99 µM,1.87 µM,5.37 µM,5.44 µM,16.5 µM,4.12 µM,> 25 µM,6.98 µM,21.1 µM,2.11 µM,14.5 µM,–
Cc1cc(C(C#N)c2ccc(Cl)cc2)c(Cl)cc1NC(=O)c1cc(I)cc(I)c1O (stereo not drawn),4.87 µM and 19.5 µM,28.5 µM and 46.3 µM,10.4 µM and 16.7 µM,26.1 µM and 35.5 µM,15.2 µM and 16.2 µM,28.8 µM and 29.7 µM,10.8 µM and 5.95 µM,23.7 µM and 19.4 µM,8.33 µM and 14.2 µM,23.5 µM and 28.5 µM,3.22 µM and 10.9 µM,14.7 µM and 30.1 µM,16.4 µM and 17.5 µM,51.4 µM and 47.9 µM,14.4 µM and 15.1 µM,28.1 µM and 29.6 µM,10.5 µM and 16.1 µM,40.9 µM and 36.5 µM,–
Cc1cccc(C(C)C)c1NC(=O)C(=O)CC(=O)c1c(C)n([O-])c2ccccc2[n+]1=O,–,60 µM,–,> 100 µM,–,88.3 µM,–,> 100 µM,–,22 µM,–,> 100 µM,–,95 µM,–,48 µM,–,> 100 µM,–
CCc1cc(O)c(Cl)c(C)c1Cl,–,33.7 µM,–,31.8 µM,–,41.4 µM,–,28.7 µM,–,33.5 µM,–,42.5 µM,–,28.5 µM,–,35.6 µM,–,33.8 µM,–
